Assay results taken from publication PMC10193983 (Proceedings of the National Academy of Sciences of the …, 2023).

Target: MnMT4
Assay: biolayer interferometry
Type: binding, Mycolicibacterium neoaurum

Compound | Kd
C[S+](CC[C@H](N)C(=O)[O-])C[C@H]1O[C@@H](n2cnc3c(N)ncnc32)[C@H](O)[C@@H]1O (some centres unmarked) [SAM] | 18.4 µM
Nc1ncnc2c1ncn2[C@@H]1O[C@H](CSCC[C@H](N)C(=O)O)[C@@H](O)[C@H]1O [SAH] | 0.0291 µM
